IC50 data for three molecules are collected here from ChEMBL document CHEMBL1944522, “Design, synthesis, and anaplastic lymphoma kinase (ALK) inhibitory activity for a novel series of 2,4,8,22-tetraazatetracyclo[14.3.1.1³,⁷.1⁹,¹³]docosa-1(20),3(22),4,6,9(21),10,12,16,18-nonaene macrocycles” (J Med Chem, 2012).

This assay deals with ALK tyrosine kinase receptor (Homo sapiens, UniProt Q9UM73). Put plainly: Inhibition of baculovirus expressed GST-tagged human ALK cytoplasmic domain using PLCgamma as substrate after 15 mins by time-resolved fluorescence analysis.
ALK tyrosine kinase receptor, sequence (Q9UM73 whole entry, the tested form may be a part): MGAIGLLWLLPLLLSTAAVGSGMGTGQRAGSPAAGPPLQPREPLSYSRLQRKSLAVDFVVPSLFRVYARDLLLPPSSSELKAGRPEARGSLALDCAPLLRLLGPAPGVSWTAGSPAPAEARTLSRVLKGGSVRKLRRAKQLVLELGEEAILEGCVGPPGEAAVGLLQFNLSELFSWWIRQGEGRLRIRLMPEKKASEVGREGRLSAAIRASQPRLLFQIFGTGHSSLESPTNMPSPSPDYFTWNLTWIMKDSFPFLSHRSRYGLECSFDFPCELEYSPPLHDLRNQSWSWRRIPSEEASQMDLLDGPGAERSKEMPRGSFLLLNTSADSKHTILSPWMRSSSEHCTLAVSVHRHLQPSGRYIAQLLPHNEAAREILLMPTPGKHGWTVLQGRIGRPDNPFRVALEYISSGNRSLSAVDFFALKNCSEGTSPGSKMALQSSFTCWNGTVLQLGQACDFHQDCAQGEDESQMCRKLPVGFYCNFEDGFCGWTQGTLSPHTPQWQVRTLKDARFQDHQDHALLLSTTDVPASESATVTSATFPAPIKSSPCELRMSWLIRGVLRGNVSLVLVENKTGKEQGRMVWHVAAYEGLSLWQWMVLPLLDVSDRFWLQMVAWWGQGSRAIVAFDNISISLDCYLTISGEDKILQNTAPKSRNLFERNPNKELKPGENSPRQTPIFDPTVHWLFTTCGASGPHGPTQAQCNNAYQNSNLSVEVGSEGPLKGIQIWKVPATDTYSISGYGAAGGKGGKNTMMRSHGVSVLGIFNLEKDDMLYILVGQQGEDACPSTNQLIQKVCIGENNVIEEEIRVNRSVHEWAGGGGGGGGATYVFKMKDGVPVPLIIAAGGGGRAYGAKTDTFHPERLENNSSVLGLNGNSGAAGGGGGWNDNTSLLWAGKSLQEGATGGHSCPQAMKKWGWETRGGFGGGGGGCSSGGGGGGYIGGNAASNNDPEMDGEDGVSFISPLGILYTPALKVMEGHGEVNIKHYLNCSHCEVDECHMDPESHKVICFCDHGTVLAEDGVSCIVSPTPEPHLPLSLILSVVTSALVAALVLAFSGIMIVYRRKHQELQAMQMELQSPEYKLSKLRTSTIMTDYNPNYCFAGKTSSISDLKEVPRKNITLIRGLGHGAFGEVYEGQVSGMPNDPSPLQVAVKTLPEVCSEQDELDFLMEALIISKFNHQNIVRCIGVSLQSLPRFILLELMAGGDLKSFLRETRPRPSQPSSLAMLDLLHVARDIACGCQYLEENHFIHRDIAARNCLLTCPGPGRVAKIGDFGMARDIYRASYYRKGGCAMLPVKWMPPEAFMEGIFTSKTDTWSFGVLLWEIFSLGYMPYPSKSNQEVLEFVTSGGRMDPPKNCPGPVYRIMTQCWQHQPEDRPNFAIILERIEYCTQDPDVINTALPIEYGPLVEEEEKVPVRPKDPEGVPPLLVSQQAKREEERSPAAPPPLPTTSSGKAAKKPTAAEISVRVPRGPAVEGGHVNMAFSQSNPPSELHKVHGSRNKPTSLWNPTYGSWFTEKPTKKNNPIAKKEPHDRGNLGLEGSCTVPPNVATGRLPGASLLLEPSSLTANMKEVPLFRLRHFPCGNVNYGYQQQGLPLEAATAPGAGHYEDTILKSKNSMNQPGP

What is called IC50 is the concentration that inhibits the measured activity by half. Lower therefore signals inhibition by little substance. `Clc1cnc2nc1Nc1cccc(c1)CCc1cc(ccc1N1CCOCC1)N2` showed an IC50 of over 10 µM.
As for `Clc1cnc2nc1Nc1cccc(c1)CCc1cccc(c1)N2`, the IC50 was over 10 µM.
In turn, `COc1ccc2cc1Nc1nc(ncc1Cl)Nc1ccc(N3CCOCC3)c(c1)CC2` registered an IC50 of over 1 µM.
